# Assay results published in patent US20250179055A1, “Substituted 2-(pyrrolidine-3-yl)acetic acid derivative, preparation method and use thereof” (INNOVSTONE THERAPEUTICS LIMITED, priority 2023, published 2025).
# Read-outs that look alike come from different tables or passages of the source.
# Molecular target: Lp(a) assembly in HepG2 cells overexpressing ApoA protein (Homo sapiens (Human), UniProt P08519)
# Assay: ELISA assay on screening Lp(a) assembly inhibition
# Format: cell-based
# Protocol: Test Example 1 and Methods of ELISA Assay on Screening Lp(a) Assembly Inhibition
# • 1) Preheated the culture media, DPBS, and pancreatin in a 37° C. water bath in advance. • 2) Digested cells with pancreatin, transferred the cell suspension to a 15 mL centrifuge tube, and centrifuged at 1000 rpm for 5 min. • 3) Resuspended the cells with culture media and transferred the cell suspension to a new T75 cell culture flask. • 4) Cultured at 37° C. in a 5% CO2 incubator.
# • 1) Seeded HepG2 cells overexpressing of ApoA protein into a 96-well plate at 100 μL per well and incubated overnight for attachment. • 2) Replaced with fresh culture media the next day, then added diluted compounds, and cultured the cell plate in a 5% CO2, 37° C. incubator for 24 h.
# • 1) Added 10 μL of 1.5 M EACA to each well. • 2) Centrifuged at 1000 rpm for 1 min, and transferred 100 μL of cell culture supernatant to a pre-coated ELISA plate.
# • 1) Added 100 μL of capture antibody to each well of a pre-coated ELISA plate and incubated overnight at 25° C. • 2) Added 300 μL of washing solution to each well and washed 5 times for 1 min each time. • 3) Added 100 μL of blocking solution to each well and incubated at 25° C. for 2 h. • 4) Added 300 μL of washing solution to each well and washed 5 times for 1 min each time. • 5) Added 100 μL of sample to each well and incubated at 25° C. for 1 h. • 6) Added 300 μL of washing solution to each well and washed 5 times for 1 min each time. • 7) Added 100 μL of detection antibody to each well and incubated at 25° C. for 1 h. • 8) Added 300 μL of washing solution to each well and washed 5 times for 1 min each time. • 9) Added 100 μL substrate solution (Color Reagent A: Color Reagent B, 1:1) to each well and incubated for 20 min at 25° C. in the dark. • 10) Added […] of stop solution to each well, gently blowed and sucked several times with the pipette tip, and read within 5 min.
# [formula] • X: cpd concentration • Y: inhibition % • Top and Bottom: Plateaus in same units as Y • log IC50: same log units as X • HillSlope: Slope factor or Hill slope
# [1] = HepG2 cells overexpressing ApoA protein, 24 h, ELISA of supernatant
# Sequence of Lp(a) assembly in HepG2 cells overexpressing ApoA protein (P08519 20-2040): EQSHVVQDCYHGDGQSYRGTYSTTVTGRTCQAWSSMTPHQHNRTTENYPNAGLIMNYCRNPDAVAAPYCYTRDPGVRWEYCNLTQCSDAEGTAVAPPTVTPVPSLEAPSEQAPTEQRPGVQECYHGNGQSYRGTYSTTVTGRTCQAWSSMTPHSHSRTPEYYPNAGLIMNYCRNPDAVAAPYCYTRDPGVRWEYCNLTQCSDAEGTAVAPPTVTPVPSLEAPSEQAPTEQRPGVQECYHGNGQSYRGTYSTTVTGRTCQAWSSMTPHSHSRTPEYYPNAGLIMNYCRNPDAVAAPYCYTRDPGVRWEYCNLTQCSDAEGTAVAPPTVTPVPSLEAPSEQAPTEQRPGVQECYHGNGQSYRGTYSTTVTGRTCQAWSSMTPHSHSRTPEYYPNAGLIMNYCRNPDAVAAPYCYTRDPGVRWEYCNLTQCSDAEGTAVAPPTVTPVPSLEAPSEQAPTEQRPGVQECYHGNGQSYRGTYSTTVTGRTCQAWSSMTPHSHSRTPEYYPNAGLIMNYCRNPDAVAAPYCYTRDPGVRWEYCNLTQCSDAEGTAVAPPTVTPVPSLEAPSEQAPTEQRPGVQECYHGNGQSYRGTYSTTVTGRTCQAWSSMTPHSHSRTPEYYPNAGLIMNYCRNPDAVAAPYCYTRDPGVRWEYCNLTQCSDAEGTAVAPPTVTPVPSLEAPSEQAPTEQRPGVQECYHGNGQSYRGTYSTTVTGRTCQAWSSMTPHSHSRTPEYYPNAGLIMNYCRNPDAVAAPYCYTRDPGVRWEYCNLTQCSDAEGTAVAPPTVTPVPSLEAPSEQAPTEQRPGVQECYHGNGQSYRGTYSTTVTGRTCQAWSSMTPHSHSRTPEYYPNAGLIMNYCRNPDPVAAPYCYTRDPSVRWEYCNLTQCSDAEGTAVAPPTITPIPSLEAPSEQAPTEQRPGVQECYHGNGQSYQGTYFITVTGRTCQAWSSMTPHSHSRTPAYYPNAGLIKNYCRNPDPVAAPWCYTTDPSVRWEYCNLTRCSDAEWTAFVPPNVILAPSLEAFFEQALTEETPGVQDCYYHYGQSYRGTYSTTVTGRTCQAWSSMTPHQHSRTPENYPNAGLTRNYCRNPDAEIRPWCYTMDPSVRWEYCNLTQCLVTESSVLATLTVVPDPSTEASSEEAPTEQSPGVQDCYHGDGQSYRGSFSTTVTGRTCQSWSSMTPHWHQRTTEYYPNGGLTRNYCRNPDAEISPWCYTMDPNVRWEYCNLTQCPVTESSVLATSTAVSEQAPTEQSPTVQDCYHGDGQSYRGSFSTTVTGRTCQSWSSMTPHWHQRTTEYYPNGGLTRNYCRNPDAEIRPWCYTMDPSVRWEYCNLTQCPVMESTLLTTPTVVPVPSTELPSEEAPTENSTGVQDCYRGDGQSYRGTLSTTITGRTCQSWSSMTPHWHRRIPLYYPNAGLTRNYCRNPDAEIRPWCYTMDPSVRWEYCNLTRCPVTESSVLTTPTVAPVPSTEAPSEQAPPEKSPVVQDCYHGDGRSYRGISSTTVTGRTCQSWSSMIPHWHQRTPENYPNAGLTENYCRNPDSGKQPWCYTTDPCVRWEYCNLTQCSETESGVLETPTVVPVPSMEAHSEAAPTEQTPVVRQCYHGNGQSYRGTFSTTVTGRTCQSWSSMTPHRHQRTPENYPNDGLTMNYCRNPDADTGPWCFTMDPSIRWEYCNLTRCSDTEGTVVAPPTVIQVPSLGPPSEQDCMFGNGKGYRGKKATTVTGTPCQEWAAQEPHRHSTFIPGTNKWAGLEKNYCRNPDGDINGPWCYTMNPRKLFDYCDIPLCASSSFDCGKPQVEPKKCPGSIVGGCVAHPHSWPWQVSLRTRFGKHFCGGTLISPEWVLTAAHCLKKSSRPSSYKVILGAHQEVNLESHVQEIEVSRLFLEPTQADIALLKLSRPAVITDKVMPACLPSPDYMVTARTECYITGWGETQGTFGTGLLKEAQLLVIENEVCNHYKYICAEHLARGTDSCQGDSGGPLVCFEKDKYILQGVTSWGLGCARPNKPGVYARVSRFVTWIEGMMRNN
SMILES,IC50 [1] [nM],IC50 [nM]
"O=C(O)[C@@H](Cc1ccc2occ(CN(Cc3coc4ccc(C[C@H](C(=O)O)[C@H]5CCNC5)cc34)Cc3coc4ccc(C[C@H](C(=O)O)[C@H]5CCNC5)cc34)c2c1)[C@H]1CCNC1 [Compound 47, (2S,2′S,2″S)-3,3′,3″-((nitrilotris(methylene))tris(benzofuran-3,5-diyl))tris(2-((R)-pyrrolidin-3-yl)propanoic acid)]",1.03,–
"O=C(O)C(Cc1cccc(C(=O)N(CCOc2cccc(C[C@H](C(=O)O)[C@H]3CCNC3)c2)Cc2cccc(C[C@H](C(=O)O)[C@H]3CCNC3)c2)c1)C1CCNC1 (stereo in doubt) [Compound 97, (S)-3-(3-((3-((S)-2-carboxy-2-((R)-pyrrolidin-3-yl)ethyl)-N-(2-(3-((S)-2-carboxy-2-((R)-pyrrolidin-3-yl)ethyl)phenoxy)ethyl)benzamido)methyl)phenyl)-2-((R)-pyrrolidin-3-yl)propanoic acid]",1.46,–
"O=C(O)[C@@H](Cc1cccc(CCN(CCOc2cccc(C[C@H](C(=O)O)[C@H]3CCNC3)c2)CCc2cccc(C[C@H](C(=O)O)[C@H]3CCNC3)c2)c1)[C@H]1CCNC1 [Compound 71, (2S,2′S)-3,3′-((((2-(3-((S)-2-carboxy-2-((R)-pyrrolidin-3-yl)ethyl)phenoxy)ethyl)azanediyl)bis(ethane-2,1-diyl))bis(3,1-phenylene))bis(2-((R)-pyrrolidin-3-yl)propanoic acid)]",0.54,–
"O=C(O)[C@@H](Cc1ncc(CN(Cc2cnc(C[C@H](C(=O)O)[C@H]3CCNC3)s2)Cc2cnc(C[C@H](C(=O)O)[C@H]3CCNC3)s2)s1)[C@H]1CCNC1 [Compound 121, (2S,2′S,2″S)-3,3′,3″-((nitrilotris(methylene))tris(thiazole-5,2-diyl))tris(2-((R)-pyrrolidin-3-yl)propanoic acid)]",–,1.53
"O=C(O)[C@@H](Cc1cccc(CCN(CCc2cccc(C[C@H](C(=O)O)[C@H]3CCNC3)c2)C(=O)c2cccc(C[C@H](C(=O)O)[C@H]3CCNC3)c2)c1)[C@H]1CCNC1 [Compound 108, (2S,2′S)-3,3′-((((3-((S)-2-carboxy-2-((R)-pyrrolidin-3-yl)ethyl)benzoyl)azanediyl)bis(ethane-2,1-diyl))bis(3,1-phenylene))bis(2-((R)-pyrrolidin-3-yl)propanoic acid)]",1.16,–
"O=C(O)[C@@H](Cc1cccc(CN(Cc2cccc(C[C@H](C(=O)O)[C@H]3CCNC3)c2)Cc2cc3ccc(C[C@H](C(=O)O)[C@H]4CCNC4)cc3s2)c1)[C@H]1CCNC1 [Compound 11, (2S,2′S)-3,3′-(((((6-((S)-2-carboxy-2-((R)-pyrrolidin-3-yl)ethyl)benzo[b]thiophen-2-yl)methyl)azanediyl)bis(methylene))bis(3,1-phenylene))bis(2-((R)-pyrrolidin-3-yl)propanoic acid)]",0.89,–
"O=C(O)[C@@H](Cc1ccc2occ(CCN(CCc3coc4ccc(C[C@H](C(=O)O)[C@H]5CCNC5)cc34)CCc3coc4ccc(C[C@H](C(=O)O)[C@H]5CCNC5)cc34)c2c1)[C@H]1CCNC1 [Compound 67, (2S,2′S,2″S)-3,3′,3″-((nitrilotris(ethane-2,1-diyl))tris(benzofuran-3,5-diyl))tris(2-((R)-pyrrolidin-3-yl)propanoic acid)]",8.55,–
"[2H]C([2H])(c1cccc(C[C@H](C(=O)O)[C@H]2CCNC2)c1)N(Cc1cccc(C[C@H](C(=O)O)[C@H]2CCNC2)c1)C([2H])([2H])c1cccc(C[C@H](C(=O)O)[C@H]2CCNC2)c1 [Compound 93, (2S,2′S)-3,3′-((((3-((S)-2-carboxy-2-((R)-pyrrolidin-3-yl)ethyl)benzyl)azanediyl)bis(methylene-d2))bis(3,1-phenylene))bis(2-((R)-pyrrolidin-3-yl)propanoic acid)]",0.81,–
"O=C(O)[C@@H](Cc1cc2c(CN(Cc3cccc4sc(C[C@H](C(=O)O)[C@H]5CCNC5)cc34)Cc3cccc4sc(C[C@H](C(=O)O)[C@H]5CCNC5)cc34)cccc2s1)[C@H]1CCNC1 [Compound 101, (2S,2′S,2″S)-3,3′,3″-((nitrilotris(methylene))tris(benzo[b]thiophene-4,2-diyl))tris(2-((R)-pyrrolidin-3-yl)propanoic acid)]",2.71,–
"O=C(O)[C@@H](Cc1cccc(CCN(CCc2cccc(C[C@H](C(=O)O)[C@H]3CCNC3)c2)C(=O)Cc2cccc(C[C@H](C(=O)O)[C@H]3CCNC3)c2)c1)[C@H]1CCNC1 [Compound 107, (2S,2′S)-3,3′-((((2-(3-((S)-2-carboxy-2-((R)-pyrrolidin-3-yl)ethyl)phenyl)acetyl)azanediyl)bis(ethane-2,1-diyl))bis(3,1-phenylene))bis(2-((R)-pyrrolidin-3-yl)propanoic acid)]",1.66,–

# Further lines, with some results ahead:
IC50 [1] [nM],SMILES,IC50 [nM]
0.79,"O=C(O)[C@@H](Cc1cccc(CCC(=O)N(CCOc2cccc(C[C@H](C(=O)O)[C@H]3CCNC3)c2)Cc2cccc(C[C@H](C(=O)O)[C@H]3CCNC3)c2)c1)[C@H]1CCNC1 [Compound 140, (S)-3-(3-(3-((3-((S)-2-carboxy-2-((R)-pyrrolidin-3-yl)ethyl)benzyl)(2-(3-((S)-2-carboxy-2-((R)-pyrrolidin-3-yl)ethyl)phenoxy)ethyl)amino)-3-oxopropyl)phenyl)-2-((R)-pyrrolidin-3-yl)propanoic acid]",–
1.02,"O=C(O)[C@@H](Cc1cccc(CNC(=O)N(CCOc2cccc(C[C@H](C(=O)O)[C@H]3CCNC3)c2)Cc2cccc(C[C@H](C(=O)O)[C@H]3CCNC3)c2)c1)[C@H]1CCNC1 [Compound 141, (S)-3-(3-(2-(1,3-bis(3-((S)-2-carboxy-2-((R)-pyrrolidin-3-yl)ethyl)benzyl)ureido)ethoxy)phenyl)-2-((R)-pyrrolidin-3-yl)propanoic acid]",–
1.52,"O=C(O)[C@@H](Cc1cccc(CC(=O)N(CCOc2cccc(C[C@H](C(=O)O)[C@@H]3CCNC3)c2)Cc2cccc(C[C@H](C(=O)O)[C@@H]3CCNC3)c2)c1)[C@@H]1CCNC1 [Compound 210, (S)-3-(3-(2-((3-((S)-2-carboxy-2-((S)-pyrrolidin-3-yl)ethyl)benzyl)(2-(3-((S)-2-carboxy-2-((S)-pyrrolidin-3-yl)ethyl)phenoxy)ethyl)amino)-2-oxoethyl)phenyl)-2-((S)-pyrrolidin-3-yl)propanoic acid]",–
1.65,"O=C(O)[C@@H](Cc1cccc(CC(=O)N(CCSc2cccc(C[C@H](C(=O)O)[C@H]3CCNC3)c2)Cc2cccc(C[C@H](C(=O)O)[C@H]3CCNC3)c2)c1)[C@H]1CCNC1 [Compound 158, (S)-3-(3-(2-((3-((S)-2-carboxy-2-((R)-pyrrolidin-3-yl)ethyl)benzyl)(2-((3-((S)-2-carboxy-2-((R)-pyrrolidin-3-yl)ethyl)phenyl)thio)ethyl)amino)-2-oxoethyl)phenyl)-2-((R)-pyrrolidin-3-yl)propanoic acid]",–
0.94,"Cn1c(C[C@H](C(=O)O)[C@H]2CCNC2)nc2ccc(CN(Cc3ccc4nc(C[C@H](C(=O)O)[C@H]5CCNC5)n(C)c4c3)Cc3ccc4nc(C[C@H](C(=O)O)[C@H]5CCNC5)n(C)c4c3)cc21 [Compound 133, (2S,2′S,2″S)-3,3′,3″-((nitrilotris(methylene))tris(1-methyl-1H-benzo[d]imidazole-6,2-diyl))tris(2-((R)-pyrrolidin-3-yl)propanoic acid)]",–
0.93,"O=C(O)[C@@H](Cc1cccc(CC(=O)N(CCNc2cccc(C[C@H](C(=O)O)[C@H]3CCNC3)c2)Cc2cccc(C[C@H](C(=O)O)[C@H]3CCNC3)c2)c1)[C@H]1CCNC1 [Compound 146, (S)-3-(3-(2-((3-((S)-2-carboxy-2-((R)-pyrrolidin-3-yl)ethyl)benzyl)(2-((3-((S)-2-carboxy-2-((R)-pyrrolidin-3-yl)ethyl)phenyl)amino)ethyl)amino)-2-oxoethyl)phenyl)-2-((R)-pyrrolidin-3-yl)propanoic acid]",–
1.18,"O=C(O)[C@@H](Cc1noc2cc(CN(Cc3ccc4c(C[C@H](C(=O)O)[C@H]5CCNC5)noc4c3)Cc3ccc4c(C[C@H](C(=O)O)[C@H]5CCNC5)noc4c3)ccc12)[C@H]1CCNC1 [Compound 144, (2S,2′S,2″S)-3,3′,3″-((nitrilotris(methylene))tris(benzo[d]isoxazole-6,3-diyl))tris(2-((R)-pyrrolidin-3-yl)propanoic acid)]",–
2.58,"O=C(O)[C@@H](Cc1cccc(CN2CCN(Cc3cccc(C[C@H](C(=O)O)[C@H]4CCNC4)c3)CC2)c1)[C@H]1CCNC1 [Compound 117, (2S,2′S)-3,3′-((piperazine-1,4-diylbis(methylene))bis(3,1-phenylene))bis(2-((R)-pyrrolidin-3-yl)propanoic acid)]",–
